EP0326326A1, “Cysteine derivatives” (SANTEN PHARMACEUTICAL CO., LTD., priority 1988, dated 1989)

What was measured:
[1] = system: haemolytic plaque-forming spleen cells; assay: Effect on immune response against sheep red blood cells of mouse (haemolytic plaque-forming spleen cell count); type: in vivo, female BALB/c mice; conditions: Erythrocyte, ip, 96 h, mice immunized with 5 x 10⁸ sheep red blood cells i.p., compound administered continuously for 4 days, calculated from the cell count, read-out: 50% suppressive dose
Experimental: According to the method of Iso ( Int. J. Immunotherapy, 1, 93 (1985)), 5 x 10⁸ sheep red blood cells were administered intraperitoneally to female BALB/c mice ( 3 to 5 mice a group ) and immunized.
After immunization, the test compound suspended in 1% methyl cellulose solution was administered continuously for 4 days.
Mice were killed and the number of haemolytic plaque-forming spleen cells were measured.
50% suppressive dose was calculated based on the cell count. For a comparison, the similar test with the known compound of the formula[IV] described in US Patent 4305958 was performed.

[2] = system: ddY mice; assay: Acute toxicity; conditions: mouse, in vivo, po, 2000 mg/kg
Experimental: (§1) The compound No.2 was suspended in 0.5% methyl cellulose solution at 20% concentration. The solution was administered orally to ddY mice ( male, 5 weeks age, 6 mice a group ) at a dose of 2000mg/kg.

[3] = Acute toxicity; parameters: species or system ddY mice; conditions: mouse, in vivo; oral, ddY mice, male, single dose of 2000mg/kg; read-out: LD₅₀
Experimental: as §1

[4] = system: liver disorder caused by CCl₄; assay: Effect on the liver disorder caused by CCl₄ (serum GOT and GPT levels); type: in vivo, male Wistar rats; conditions: 24 hours after CCl₄ 0.25ml/kg intraperitoneally, test compound 300mg/kg orally 30 minutes before, rat
Experimental: The rat liver disorder model cause by CCl₄ is generally used to examine the efficacy of a drug for liver diseases.
The test compound was suspended in tragacanth gum solution and administered orally to male Wistar rats ( 5rats a group) at a dose of 300mg/kg.
Thirty minutes later, CCl₄ a liver disorder inducer, was given intraperitoneally at a dose of 0.25ml/kg.
Serum GOT and GPT levels were measured 24 hours after the administration of CCl₄ . To a control, 0.5% tragacanth gum solution was given.

| SMILES | ED50 [1] | Toxicity [2] | LD50 [3] | GOT [4] | GPT [4] |
| --- | --- | --- | --- | --- | --- |
| CC(C)(S)C(=O)NC(CS)C(=O)O (stereo not drawn) [known compound, reference compound] | 90.6 mg/kg | – | – | – | – |
| CC(C)(CS)C(=O)N[C@@H](CS)C(=O)O [Compound No.2, N-(2,2-Dimethyl-3-mercaptopropionyl)-L-cysteine] | 19.1 mg/kg | weak with a single case of death | > 2000 mg/kg | 13605 | 6558 |
